Results as given in US20240350493A1 (Kadmon Corporation, LLC, priority 2022, published 2024).
Structures can show the parent of a compound that is named as a salt. Marks after values point to notes of the source that are not given here.

What was measured:
[1] = solubility of belumosudil mesylate in solvents; assay type: physicochemical
ROCK2 = ROCK2 (Homo sapiens, UniProt O75116); test: ROCK2 inhibition; assay type: biochemical
[2] = phase I two-part drug-drug interaction study, plasma pharmacokinetics (Example 1); assay type: in vivo, human
Description: The secondary objective was to provide additional information on the safety and tolerability of this dose regimen in healthy males.
This was a single center, non-randomized, DDI study in 35 (Part 1) and 38 (Part 2) healthy males. The key inclusion criterion was males aged 18 to 55 years (inclusive). […] In Part 2, co-administration with omeprazole was studied. The study design is illustrated in FIG. 1.
At least a 2-to 8-day washout occurred between each period to account for a minimum of 5 half-lives of the active moieties dosed in the preceding period.
Blood samples were collected into 6 mL K,EDTA tubes and were processed within 30 minutes of collection. The resultant plasma was then frozen within 90 minutes of collection and stored at […] until shipment to the bioanalytical laboratory.
For each comparison, PK parameters were natural log transformed and analyzed using mixed effect modeling with treatment included as a fixed effect and subject as a random effect. Adjusted geometric mean ratios (GMRs) and corresponding 90% CIs were calculated.

[3] = human, in vivo
patients with cGVHD = details: cited from earlier work
[4] = 200 mg belumosudil BID + omeprazole
[5] = 200 mg belumosudil BID + omeprazole, first dose
[6] = 200 mg belumosudil BID + omeprazole, second dose
[7] = 200 mg belumosudil BID alone, first dose
[8] = 200 mg belumosudil BID alone, second dose
[9] = 200 mg belumosudil single dose + rifampicin
[10] = 200 mg belumosudil single dose alone
[11] = coadministration of itraconazole
[12] = coadministration of rabeprazole
[13] = 200 mg belumosudil single dose + itraconazole
[14] = 200 mg belumosudil single dose + rabeprazole

Chain of ROCK2 (O75116 whole entry): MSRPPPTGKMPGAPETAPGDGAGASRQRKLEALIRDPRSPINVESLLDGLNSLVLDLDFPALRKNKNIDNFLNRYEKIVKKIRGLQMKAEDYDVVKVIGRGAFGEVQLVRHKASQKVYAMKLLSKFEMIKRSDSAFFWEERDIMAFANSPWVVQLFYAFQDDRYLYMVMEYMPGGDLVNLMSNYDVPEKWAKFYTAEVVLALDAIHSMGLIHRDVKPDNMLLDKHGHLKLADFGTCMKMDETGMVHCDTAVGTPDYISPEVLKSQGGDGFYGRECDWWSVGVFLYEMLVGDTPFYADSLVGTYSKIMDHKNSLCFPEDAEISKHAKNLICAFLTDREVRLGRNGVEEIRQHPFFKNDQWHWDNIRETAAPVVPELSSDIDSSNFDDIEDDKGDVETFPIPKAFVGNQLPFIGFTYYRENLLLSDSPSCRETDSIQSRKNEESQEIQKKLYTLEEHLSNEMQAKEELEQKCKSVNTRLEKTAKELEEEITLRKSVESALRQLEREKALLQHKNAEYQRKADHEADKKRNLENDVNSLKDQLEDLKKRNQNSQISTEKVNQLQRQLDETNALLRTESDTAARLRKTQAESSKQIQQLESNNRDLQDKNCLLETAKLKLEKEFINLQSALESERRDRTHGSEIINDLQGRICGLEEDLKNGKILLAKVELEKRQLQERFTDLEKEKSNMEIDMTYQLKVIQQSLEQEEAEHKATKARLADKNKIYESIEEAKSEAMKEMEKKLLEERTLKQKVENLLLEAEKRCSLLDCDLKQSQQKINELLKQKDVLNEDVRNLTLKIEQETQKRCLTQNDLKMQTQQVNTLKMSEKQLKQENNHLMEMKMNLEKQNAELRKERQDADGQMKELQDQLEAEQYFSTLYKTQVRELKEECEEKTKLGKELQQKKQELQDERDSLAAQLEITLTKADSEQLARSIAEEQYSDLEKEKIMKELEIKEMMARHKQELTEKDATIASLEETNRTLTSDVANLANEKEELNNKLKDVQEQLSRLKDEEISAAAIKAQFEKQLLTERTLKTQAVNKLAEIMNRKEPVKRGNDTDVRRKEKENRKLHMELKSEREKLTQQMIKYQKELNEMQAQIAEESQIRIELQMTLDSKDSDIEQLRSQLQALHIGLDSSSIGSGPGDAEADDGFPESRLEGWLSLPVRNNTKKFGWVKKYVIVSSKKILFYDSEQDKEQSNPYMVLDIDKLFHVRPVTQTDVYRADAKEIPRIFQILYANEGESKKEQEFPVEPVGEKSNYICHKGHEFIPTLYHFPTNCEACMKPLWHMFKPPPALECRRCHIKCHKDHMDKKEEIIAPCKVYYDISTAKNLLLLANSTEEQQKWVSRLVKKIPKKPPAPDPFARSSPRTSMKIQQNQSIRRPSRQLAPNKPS

## CC(C)NC(=O)COc1cccc(-c2nc(Nc3ccc4[nH]ncc4c3)c3ccccc3n2)c1 [Belumosudil mesylate, 2-{3-[4-(1H-indazol-5-ylamino)-2-quinazolinyl]phenoxy}-N-(propan-2-yl) acetamide methanesulfonate (1:1)]
[1]; DMF
  solubility in DMF: slightly soluble
[1]; DMSO
  solubility in DMSO: soluble
[1]; methanol
  solubility in methanol: slightly soluble
[1]; water
  solubility in water: practically insoluble

## NC(=O)COc1cccc(-c2nc(Nc3ccc4[nH]ncc4c3)c3ccccc3n2)c1 [KD025m1]
ROCK2
  ROCK2 activity of metabolite: active
[2]
  increase in AUClast vs belumosudil alone: 150%
  increase in Cmax vs belumosudil alone: 129%
[2]; [4]
  AUC0-24, arithmetic mean (SD): 113 (81.2) ^q ng*h/mL
  AUC0-24, geometric mean (geometric CV %): 91.5 (76.3) ^q; ng*h/mL
  AUCinf, arithmetic mean (SD): 279 (122) ^t ng*h/mL
  AUCinf, geometric mean (geometric CV %): 265 (47.6) ^t; ng*h/mL
  AUClast, arithmetic mean (SD): 164 (100) ^q ng*h/mL
  AUClast, geometric mean (geometric CV %): 123 (114.0) ^q; ng*h/mL
  t1/2, arithmetic mean (SD): 2.31 (0.848) ^u h
  t1/2, geometric mean (geometric CV %): 2.21 (39.0) ^u; h
[2]; [5]
  Cmax, arithmetic mean (SD): 20.5 (11.4) ^j ng/mL
  Cmax, geometric mean (geometric CV %): 18.0 (54.6) ^j; ng/mL
  Tmax, median (range): 3.00 (1.00-5.00) h
[2]; [6]
  Cmax, arithmetic mean (SD): 21.2 (11.3) ^s ng/mL
  Cmax, geometric mean (geometric CV %): 18.9 (48.7) ^s; ng/mL
  Tmax, median (range): 16.50 (13.50-22.00) h
[2]; 200 mg belumosudil BID alone
  AUC0-24, arithmetic mean (SD): 187 (161) ^l ng*h/mL
  AUC0-24, geometric mean (geometric CV %): 138 (91.3) ^l; ng*h/mL
  AUCinf, arithmetic mean (SD): 287 (149) ^o ng*h/mL
  AUCinf, geometric mean (geometric CV %): 259 (47.7) ^o; ng*h/mL
  AUClast, arithmetic mean (SD): 205 (153) ^l ng*h/mL
  AUClast, geometric mean (geometric CV %): 157 (93.0) ^l; ng*h/mL
  t1/2, arithmetic mean (SD): 2.30 (0.757) ^p h
  t1/2, geometric mean (geometric CV %): 2.19 (34.2) ^p; h
[2]; [7]
  Cmax, arithmetic mean (SD): 25.8 (12.6) ^n ng/mL
  Cmax, geometric mean (geometric CV %): 23.8 (39.6) ^n; ng/mL
  Tmax, median (range): 2.00 (1.00-6.00) h
[2]; [8]
  Cmax, arithmetic mean (SD): 26.1 (12.7) ^n ng/mL
  Cmax, geometric mean (geometric CV %): 23.6 (46.4) ^n; ng/mL
  Tmax, median (range): 13.98 (13.00-24.00) h
[2]; [9]
  AUC0-24, arithmetic mean (SD): 159 (61.2) ^c ng*h/mL
  AUC0-24, geometric mean (geometric CV %): 148 (41.9) ^c; ng*h/mL
  AUCinf, arithmetic mean (SD): 190 (37.7) ^i ng*h/mL
  AUCinf, geometric mean (geometric CV %): 187 (20.0) ^i; ng*h/mL
  AUClast, arithmetic mean (SD): 136 (55.5) ^c ng*h/mL
  AUClast, geometric mean (geometric CV %): 126 (41.7) ^c; ng*h/mL
  Cmax, arithmetic mean (SD): 55.2 (17.1) ^c ng/mL
  Cmax, geometric mean (geometric CV %): 52.5 (34.0) ^c; ng/mL
  Tmax, median (range): 2.08 (1.50-5.00) h
  t1/2, arithmetic mean (SD): 1.55 (0.325) ^j h
  t1/2, geometric mean (geometric CV %): 1.51 (21.4) ^j; h
[2]; [10]
  AUC0-24, arithmetic mean (SD): 81.3 (30.7) ^e ng*h/mL
  AUC0-24, geometric mean (geometric CV %): 75.6 (42.1) ^e; ng*h/mL
  AUClast, arithmetic mean (SD): 58.4 (18.7) ^e ng*h/mL
  AUClast, geometric mean (geometric CV %): 55.3 (36.4) ^e; ng*h/mL
  Cmax, arithmetic mean (SD): 24.9 (9.21) ^b ng/mL
  Cmax, geometric mean (geometric CV %): 23.2 (40.0) ^b; ng/mL
  Tmax, median (range): 3.00 (1.00-5.00) h
  t1/2, arithmetic mean (SD): 1.96 (0.931) ^f h
  t1/2, geometric mean (geometric CV %): 1.82 (38.5) ^f; h
[2]; [11]
  metabolite concentrations: nonquantifiable levels in all but 1 subject
[2]; [12]
  metabolite levels: nonquantifiable in all but 1 subject
[3]
  metabolite exposure relative to the parent: < 5%

## O=C(O)COc1cccc(-c2nc(Nc3ccc4[nH]ncc4c3)c3ccccc3n2)c1 [KD025m2]
ROCK2
  ROCK2 activity of metabolite: inactive
[2]; [4]
  AUC0-24, geometric mean (geometric CV %): 767 (115.3) ^k; ng*h/mL
  AUCinf, arithmetic mean (SD): 1430 (981) ^q ng*h/mL
  AUCinf, geometric mean (geometric CV %): 1110 (90.3) ^q; ng*h/mL
  AUClast, arithmetic mean (SD): 1160 (998) ^k ng*h/mL
  AUClast, geometric mean (geometric CV %): 783 (122.6) ^k; ng*h/mL
  t1/2, arithmetic mean (SD): 3.20 (2.10) ^r h
  t1/2, geometric mean (geometric CV %): 2.76 (55.1) ^r h
[2]; [5]
  Cmax, arithmetic mean (SD): 129 (133) ^l ng/mL
  Cmax, geometric mean (geometric CV %): 72.3 (166.8) ^l; ng/mL
[2]; [6]
  Cmax, arithmetic mean (SD): 172 (160) ^n ng/mL
  Cmax, geometric mean (geometric CV %): 115 (121.8) ^n; ng/mL
[2]; 200 mg belumosudil BID alone
  AUC0-24, geometric mean (geometric CV %): 1950 (82.3) ^k; ng*h/mL
  AUCinf, arithmetic mean (SD): 2550 (2200) ^c ng*h/mL
  AUCinf, geometric mean (geometric CV %): 1900 (90.4) ^c; ng*h/mL
  AUClast, arithmetic mean (SD): 2690 (2090) ^k ng*h/mL
  AUClast, geometric mean (geometric CV %): 2030 (91.1) ^k; ng*h/mL
  t1/2, arithmetic mean (SD): 5.70 (5.24) ^c h
  t1/2, geometric mean (geometric CV %): 4.32 (78.9) ^c h
[2]; [7]
  Cmax, arithmetic mean (SD): 343 (202) ^k ng/mL
  Cmax, geometric mean (geometric CV %): 282 (75.6) ^k; ng/mL
[2]; [8]
  Cmax, arithmetic mean (SD): 323 (207) ng/mL
  Cmax, geometric mean (geometric CV %): 257 (83.9); ng/mL
[2]; [13]
  AUC0-24, geometric mean (geometric CV %): 745 (70.7); ng*h/mL
  AUCinf, arithmetic mean (SD): 1050 (792) ^c ng*h/mL
  AUCinf, geometric mean (geometric CV %): 843 (73.7) ^c; ng*h/mL
  AUClast, arithmetic mean (SD): 891 (710) ng*h/mL
  AUClast, geometric mean (geometric CV %): 704 (75.5); ng*h/mL
  Cmax, arithmetic mean (SD): 257 (152) ng/mL
  Cmax, geometric mean (geometric CV %): 221 (60.8); ng/mL
  t1/2, arithmetic mean (SD): 4.00 (3.69) ^g h
  t1/2, geometric mean (geometric CV %): 2.89 (92.2) ^g h
[2]; [14]
  AUC0-24, geometric mean (geometric CV %): 110 (84.0) ^v; ng*h/mL
  AUCinf, arithmetic mean (SD): 175 (19.4) ^t ng*h/mL
  AUCinf, geometric mean (geometric CV %): 174 (11.1) ^t; ng*h/mL
  AUClast, arithmetic mean (SD): 108 (76.5) ^v ng*h/mL
  AUClast, geometric mean (geometric CV %): 85.8 (81.6) ^v; ng*h/mL
  Cmax, arithmetic mean (SD): 29.4 (23.8) ^c ng/mL
  Cmax, geometric mean (geometric CV %): 23.5 (70.7) ^c; ng/mL
  t1/2, arithmetic mean (SD): 3.59 (1.84) ^w h
  t1/2, geometric mean (geometric CV %): 3.10 (69.6) ^w h
[2]; [9]
  AUC0-24, geometric mean (geometric CV %): 376 (56.7) ^c; ng*h/mL
  AUCinf, arithmetic mean (SD): 444 (237) ^h ng*h/mL
  AUCinf, geometric mean (geometric CV %): 396 (50.2) ^h; ng*h/mL
  AUClast, arithmetic mean (SD): 407 (237) ^c ng*h/mL
  AUClast, geometric mean (geometric CV %): 349 (61.1) ^c; ng*h/mL
  Cmax, arithmetic mean (SD): 169 (85.8) ^c ng/mL
  Cmax, geometric mean (geometric CV %): 148 (57.3) ^c; ng/mL
  t1/2, arithmetic mean (SD): 1.31 (0.368) ^h
  t1/2, geometric mean (geometric CV %): 1.27 (26.8) ^h
[2]; [10]
  AUC0-24, geometric mean (geometric CV %): 1100 (63.7); ng*h/mL
  AUCinf, arithmetic mean (SD): 1460 (910) ^d ng*h/mL
  AUCinf, geometric mean (geometric CV %): 1230 (69.5) ^d; ng*h/mL
  AUClast, arithmetic mean (SD): 1260 (811) ng*h/mL
  AUClast, geometric mean (geometric CV %): 1050 (68.1); ng*h/mL
  Cmax, arithmetic mean (SD): 379 (182) ng/mL
  Cmax, geometric mean (geometric CV %): 337 (54.7); ng/mL
  t1/2, arithmetic mean (SD): 3.86 (3.24) ^d h
  t1/2, geometric mean (geometric CV %): 3.03 (76.8) ^d h
[2]; [11]
  decrease in AUCinf vs belumosudil alone: 33%
  decrease in AUClast vs belumosudil alone: 33%
  decrease in Cmax vs belumosudil alone: 35%
[2]; coadministration of omeprazole
  decrease in AUC0-24 vs belumosudil alone: ~63%
  decrease in Cmax (first dose) vs belumosudil alone: ~73%
  decrease in Cmax, second dose vs belumosudil alone: ~57%
[2]; [12]
  decrease in AUClast vs belumosudil alone: 94%
  decrease in Cmax vs belumosudil alone: 93%

## C=CC(=O)N1CCC[C@@H](n2nc(-c3ccc(Oc4ccccc4)cc3)c3c(N)ncnc32)C1 [ibrutinib]
Patients with cGVHD
  discontinuation rate because of treatment-emergent adverse events (TEAEs): 43%
